Assay results as given in patent US20130203647A1, “DELIVERY OF H[…]” (UNIVERSITY COLLEGE LONDON, priority 2010, published 2013).
Non-standard residues stand in square brackets, D forms with d. Residues, ends and D or L forms follow the SMILES beside them. ξ: configuration not given here. *: point of attachment. Palmitoyl = CCCCCCCCCCCCCCCC(=O)*; ξY = NC(Cc1ccc(O)cc1)C(=O)O; ξR = N=C(N)NCCCC(N)C(=O)O; ξF = NC(Cc1ccccc1)C(=O)O; ξL = CC(C)CC(N)C(=O)O

How the values were obtained:
[1] = Pharmacokinetics: brain levels after intravenous administration (UPLC-MS/MS); type: in vivo; conditions: ICR (CD-1) mice, dalargin dose of 30 mg kg-1, FIG. 1
Protocol: (§1) ICR (CD-1) male out bred mice (18-24 g, 4 weeks old, Harlan, Oxon, UK) were used for the pharmacokinetics evaluations while ICR (CD-1) male out bred mice (22-28 g, 4-5 weeks old) were used for the pharmacodynamics evaluations. The animals were housed in groups of 5 in plastic cages in controlled laboratory conditions with ambient temperature and humidity maintained at ˜22° C. and 60% respectively with a 12-hour light and dark cycle (lights on at 7:00 and off at 19:00). Food and water were available ad libitum and the animals acclimatised for 5-7 days prior to any experiments in the Animal House, School of Pharmacy, University of London (London, UK). Animals were only used once and were acclimatised in the testing environment for at least 1 hour prior to testing. […]
Groups (n=5) of animals were administered either: NaCl (0.9% w/v), Dalargin, Dalargin-GCPQA, pDal and pDal-GCPQA. […] At various time points, animals were killed and their brain, liver and plasma analysed. […]
Brain and Liver were immediately frozen in liquid Nitrogen after being taken from the mouse. […] The brain and liver weights were determined and 2 mL water per g of brain was added to each (equivalent to 2 g of solvent to 1 g of brain). […]

[2] = tested on: mice; experiment: Tail flick warm water bioassay (anti-nociception); type: in vivo; conditions: ICR (CD-1) mice, intravenous, dalargin dose of 15 mg kg-1, water at 55° C., FIG. 2
Protocol: as §1, with “UK).” for “UK). Animals were only used once and were acclimatised in the testing environment for at least 1 hour prior to testing.”
Anti-nociception was assessed in mice using the tail flick warm water bioassay (17, 18). […] The response latency times, in centiseconds, recorded for each mouse to withdraw its tail by a “sharp flick” were recorded using a digital stopwatch capable of measuring 1/100th of a second. […]
Two separate withdrawal latency determinations (separated by ≧20 sec) were averaged. […] Mice not responding within 5 sec were excluded from further testing (Baseline cut-off=5 seconds) and the baseline latency was measured for all mice 2 hours prior testing. […] Briefly, percent antinociception was calculated as 100%×(test latency-baseline latency)/(10 seconds-baseline latency). […]

Molecule: CCCCCCCCCCCCCCCC(=O)Oc1ccc(CC(N)C(=O)N[C@H](C)C(=O)NCC(=O)NC(Cc2ccccc2)C(=O)NC(CC(C)C)C(=O)NC(CCCNC(=N)N)C(=O)O)cc1 (stereo partly drawn) [pDal, Palmitoyl Dalargin] (H-[ξY](Palmitoyl)[dA]G[ξF][ξL][ξR]-OH)
- Detection in the brain (brain levels) [1]: detected in the brain

Molecule: Dalargin
- Antinociceptive effect (% of Maximum Possible Effect, tail flick) [2]: unable to exert an antinociceptive effect
- Detection in the brain (brain levels) [1]: not detected in the brain
